Broadly, the MIC is the lowest concentration that inhibits growth of the organism. In general, IC50 refers to the concentration that gives 50% inhibition. Usually inhibition stands for the change of the read-out against control, counted positive when it falls.

These results are taken from ChEMBL document CHEMBL4406824, “Phenolic N-monosubstituted carbamates: Antitubercular and toxicity evaluation of multi-targeting compounds” (Eur J Med Chem, 2019).

Series [1] concerns Mycobacterium avium. Put plainly: Antimycobacterial activity against Mycobacterium avium 330/88 after 21 days. As to conditions: 330/88, 504 h. In kind it is functional.
For series [2], the system named is HepG2. Put plainly: Cytostatic activity against human HepG2 cells preincubated for overnight in serum free medium followed by compound wash out and further incubated for 72 hrs in presence of serum by MTT assay. In kind it is ADME, cell-based. On the technique in general: Formazan colour is commonly taken as a measure of viable cells.
A further series in a line: in vitro. The following applies: human, HepG2 cells.
In series [3] the test system is Mycobacterium kansasii. The series can be described thus: Antimycobacterial activity against Mycobacterium kansasii 235/80 after 21 days. As to conditions: 235/80, 504 h. Format: functional.
Series [4] deals with Mycobacterium tuberculosis. The series can be described thus: Antimycobacterial activity against Mycobacterium tuberculosis H37Ra ITM-M006710 after 48 hr by resazurin dye based microdilution method. The following applies: H37Ra ITM-M006710, 48 h. In kind it is functional. On the technique in general: The colour change of resazurin is a common sign of viable cells or microbes.

Series [5] deals with Mycobacterium tuberculosis. Format: functional. The following applies: H37Rv 331/88, 336 h.
Series [6] relates to Mycobacterium kansasii. Put plainly: Antimycobacterial activity against Mycobacterium kansasii 235/80 after 7 days. Format: functional. The following applies: 235/80, 168 h.
For series [7], the system named is Mycobacterium kansasii. Put plainly: Antimycobacterial activity against Mycobacterium kansasii 6509/96 after 7 days. Format: functional. As to conditions: 6509/96, 168 h.
Series [8] deals with HepG2. Put plainly: Cytotoxicity against human HepG2 cells assessed as reduction in cell viability after overnight incubation by MTT assay. In kind it is cell-based.
Series [9] has as its system Mycobacterium avium. Put plainly: Antimycobacterial activity against Mycobacterium avium 330/88 after 14 days. The following applies: 330/88, 336 h. In kind it is functional.
The subject of series [10] is Mycobacterium tuberculosis H37Rv. The series can be described thus: Inhibition of recombinant Mycobacterium tuberculosis H37Rv ICL1 expressed in Escherichia coli BL21 (DE3) cells at 10 uM using (+)-potassium Ds-threo-isocitrate as substrate by glyoxylate phenyl hydrazone formation assay relative to control.
Series [11] has as its system Mycobacterium tuberculosis. Format: functional, H37Rv 331/88. More on the design: reference not given here.
The test system of series [12] is Mycobacterium kansasii. Put plainly: Potency index, ratio of p-aminosalicylic acid MIC to compound MIC for antimycobacterial activity against Mycobacterium kansasii 235/80. Format: functional.
Series [13] relates to Mycobacterium kansasii. Put plainly: Potency index, ratio of p-aminosalicylic acid MIC to compound MIC for antimycobacterial activity against Mycobacterium kansasii 6509/96. In kind it is functional.
Series [14] concerns Mycolicibacterium smegmatis. Put plainly: Antimycobacterial activity against Mycobacterium smegmatis DSM 43465 after 120 hr by resazurin dye based microdilution method. In kind it is functional. As to conditions: DSM 43465, 120 h.
Series [15] concerns Mycobacterium kansasii. Put plainly: Antimycobacterial activity against Mycobacterium kansasii 6509/96 after 14 days. Format: functional. The following applies: 6509/96, 336 h.
The subject of series [16] is Mycobacterium kansasii. Put plainly: Antimycobacterial activity against Mycobacterium kansasii 6509/96 after 21 days. Format: functional. As to conditions: 6509/96, 504 h.
Series [17] has as its system Mycobacterium tuberculosis. In kind it is functional. As to conditions: H37Rv 331/88, 504 h.
For series [18], the system named is Mycobacterium avium. Put plainly: Potency index, ratio of p-aminosalicylic acid MIC to compound MIC for antimycobacterial activity against Mycobacterium avium 330/88. Format: functional.
Series [19] relates to Mycobacterium kansasii. Put plainly: Antimycobacterial activity against Mycobacterium kansasii 235/80 after 14 days. The following applies: 235/80, 336 h. Format: functional.
Another series relates to Mycolicibacterium aurum. Put plainly: Antimycobacterial activity against Mycobacterium aurum DSM 43999 after 72 hr by resazurin dye based microdilution method. Format: functional. The following applies: DSM 43999, 72 h.
Series [20] concerns Mycobacterium tuberculosis. Put plainly: Antimycobacterial activity against XDR Mycobacterium tuberculosis Praha 131 after 14 days. As to conditions: Praha 131, 336 h. In kind it is functional.
In series [21] the test system is Mycobacterium tuberculosis. The series can be described thus: Antimycobacterial activity against XDR Mycobacterium tuberculosis Praha 131 after 21 days. In kind it is functional. The following applies: Praha 131, 504 h.
The target in another series is T1, Isocitrate lyase (Mycobacterium tuberculosis, UniProt P9WKK7).
T1 sequence (P9WKK7 whole entry): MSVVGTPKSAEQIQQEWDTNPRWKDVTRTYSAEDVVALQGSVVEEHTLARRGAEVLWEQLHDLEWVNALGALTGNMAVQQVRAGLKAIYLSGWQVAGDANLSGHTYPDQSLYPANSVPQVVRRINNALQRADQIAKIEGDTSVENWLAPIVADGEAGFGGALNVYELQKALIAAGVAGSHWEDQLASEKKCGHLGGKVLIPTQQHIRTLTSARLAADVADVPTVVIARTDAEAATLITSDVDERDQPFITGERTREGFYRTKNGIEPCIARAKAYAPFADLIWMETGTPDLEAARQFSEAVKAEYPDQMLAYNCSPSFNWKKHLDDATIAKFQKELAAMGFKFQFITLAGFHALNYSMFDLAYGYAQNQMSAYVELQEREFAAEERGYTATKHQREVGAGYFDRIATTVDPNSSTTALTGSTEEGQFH
The series can be described thus: Inhibition of recombinant Mycobacterium tuberculosis ICL expressed in Escherichia coli BL21 (DE3) cells using DL-isocitric acid trisodium salt hydrate as substrate after 30 mins.

Molecules are shown by their SMILES. Values after ≈ are worked out from the molar mass of the structure shown.

Description for in vitro: Selectivity index, ratio of IC50 for human HepG2 cells to MIC for antimycobacterial activity against Mycobacterium tuberculosis H37Rv

On to `O=C(NC12CC3CC(CC(C3)C1)C2)Oc1ccc(Cl)cc1C(=O)Nc1ccc(C(F)(F)F)cc1`, for which the MIC against Mycobacterium avium [1] is 4 µM (≈ 1.97 µg/mL); against Mycobacterium kansasii [3] it was 4 µM (≈ 1.97 µg/mL); in series [4] it was 2 µM (≈ 0.986 µg/mL); in series [5], no more than 0.5 µM; against Mycobacterium kansasii [6] it was 4 µM (≈ 1.97 µg/mL); against Mycobacterium kansasii [7] it was 4 µM (≈ 1.97 µg/mL). The MIC stood at 4 µM (≈ 1.97 µg/mL) in the series with Mycobacterium avium [9]; 4 µM (≈ 1.97 µg/mL) in [14]; 4 µM (≈ 1.97 µg/mL) against Mycobacterium kansasii [15]; 4 µM (≈ 1.97 µg/mL) in the series on Mycobacterium kansasii [16]; 1 µM (≈ 0.493 µg/mL) in [17]; 4 µM (≈ 1.97 µg/mL) against Mycobacterium kansasii [19]. The MIC is no more than 0.79 µM with Mycolicibacterium aurum, 1 µM (≈ 0.493 µg/mL) in series [20] and 1 µM (≈ 0.493 µg/mL) in series [21]. Further, the IC50 was 4.85 µM with HepG2 [2] and greater than 125 µM with HepG2 [8]. For the same molecule, the selectivity ratio in the series “in vitro” was greater than 125. Further, in [10], the inhibition turned out to be 15%. Further, the Ratio in series [11] is greater than 125; with Mycobacterium kansasii [12], greater than 250; in the series with Mycobacterium kansasii [13], greater than 250; in the series with Mycobacterium avium [18], greater than 31.

In the case of `COC(=O)/C=C/C(=O)c1ccc(OC)cc1`, the IC50 at Isocitrate lyase amounted to 30.9 µM.
